Here are results for 14 molecules from patent US6111132A, “Compounds and methods for synthesis and therapy” (priority 1998, dated 2000).

SMILES strings stand for the structures.

For one assay, the target named is Neuraminidase Flu A. The experiment in a line: Neuraminidase inhibition in vitro, Flu A. The format is biochemical, influenza virus A. From the text:
Compositions of the invention are screened for inhibitory activity against neuraminidase by any of the conventional techniques for evaluating enzyme activity.
(§1) Useful in vitro screens have been described in detail and will not be elaborated here. However, von Itzstein, M. et al.; "Nature", 363(6428):418-423 (1993), in particular page 420, column 2, full paragraph 3, to page 421, column 2, first partial paragraph, describes a suitable in vitro assay of Potier, M.; et al.; "Analyt. Biochem.", 94:287-296 (1979), as modified by Chong, A. K. J.; et al.; "Biochem. Biophys. Acta", 1077:65-71 (1991); and Colman, P. M.; et al.; International Publication No. WO 92/06691 (Int. App. No. PCT/AU90/00501, publication date Apr. 30, 1992) page 34, line 13, to page 35, line 16, describes another useful in vitro screen.
In turn, `CCCCN(C)[C@@H]1C=C(C(=O)O)C[C@H](N)[C@H]1NC(C)=O` [Compound 5b] returned a concentration for half-maximal inhibition (IC50) of 180 nM.

`CCC(CC)N(C)[C@@H]1C=C(C(=O)O)C[C@H](N)[C@H]1NC(C)=O` [Compound 5c] yielded an IC50 of 6 nM.

In turn, `CCC(CC)CN(C)[C@@H]1C=C(C(=O)O)C[C@H](N)[C@H]1NC(C)=O` [Compound 5d] returned an IC50 of 120 nM.

Take `CC(=O)N[C@H]1[C@H](N(C)CCc2ccccc2)C=C(C(=O)O)C[C@@H]1N` [Compound 5e]: the IC50 came to 100 nM.

For `CC(=O)N[C@H]1[C@H](N(C)C2CCCCC2)C=C(C(=O)O)C[C@@H]1N` [Compound 5f], 200 nM corresponded to half-maximal inhibition (IC50).

Turning to `CCCN(CC)[C@@H]1C=C(C(=O)O)C[C@H](N)[C@H]1NC(C)=O` [Compound 5g], 90 nM corresponded to half-maximal inhibition (IC50).

Take `CCCCN(CC)[C@@H]1C=C(C(=O)O)C[C@H](N)[C@H]1NC(C)=O` [Compound 5h]: the concentration for half-maximal inhibition (IC50) was found to be 85 nM. The IC50 values of the last two molecules are within 1.5-fold of each other.

For the molecule `CCCN(CCC)[C@@H]1C=C(C(=O)O)C[C@H](N)[C@H]1NC(C)=O` [Compound 5i], the 50% inhibitory concentration (IC50) was 12 nM.

`CCCN(CC1CC1)[C@@H]1C=C(C(=O)O)C[C@H](N)[C@H]1NC(C)=O` [Compound 5j]: the IC50 turned out to be 50 nM. This IC50 lies about 4.2-fold higher than the previous one.

With `CC(=O)N[C@H]1[C@H](N2CCCC2)C=C(C(=O)O)C[C@@H]1N` [Compound 5k], the IC50 came out at 400 nM.

`CC(=O)N[C@H]1[C@H](N2CCCCC2)C=C(C(=O)O)C[C@@H]1N` [Compound 5l] displayed an IC50 of 30 nM.

In turn, `CC(=O)N[C@H]1[C@H](N2CCOCC2)C=C(C(=O)O)C[C@@H]1N` [Compound 5m] displayed a half-maximal inhibitory concentration (IC50) of 200 nM.

Turning to `CCC(CC)N[C@@H]1C=C(C(=O)O)C[C@H](N)[C@H]1NC(C)=O` [Compound 12a], the IC50 came to 11.5 nM.

For `CCCN[C@@H]1C=C(C(=O)O)C[C@H](N)[C@H]1NC(C)=O` [Compound 12b], inhibition was half-maximal at 200 nM (IC50).

In the next assay the target is Neuraminidase Flu B (Influenza B virus, UniProt P03474). Briefly: biochemical.
Neuraminidase Flu B, sequence (P03474 whole entry): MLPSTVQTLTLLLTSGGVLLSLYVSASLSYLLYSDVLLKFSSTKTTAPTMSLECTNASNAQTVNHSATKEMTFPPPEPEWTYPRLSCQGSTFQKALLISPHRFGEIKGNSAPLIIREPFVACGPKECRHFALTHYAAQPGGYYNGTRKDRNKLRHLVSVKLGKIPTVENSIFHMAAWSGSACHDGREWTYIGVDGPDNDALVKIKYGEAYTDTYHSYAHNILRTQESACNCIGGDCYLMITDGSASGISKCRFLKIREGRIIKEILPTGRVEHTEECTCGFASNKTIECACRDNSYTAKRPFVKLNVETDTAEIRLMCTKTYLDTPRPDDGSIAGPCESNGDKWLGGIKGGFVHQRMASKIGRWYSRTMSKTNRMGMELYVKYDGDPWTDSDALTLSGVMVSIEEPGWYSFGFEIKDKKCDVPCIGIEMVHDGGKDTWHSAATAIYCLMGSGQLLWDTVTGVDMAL
From the text: Compositions of the invention are screened for inhibitory activity against neuraminidase by any of the conventional techniques for evaluating enzyme activity. Within the context of the invention, typically compositions are first screened for inhibition of neuraminidase in vitro and compositions showing inhibitory activity are then screened for activity in vivo.
as §1
Enzyme Inhibition: Using the methods of screening in vitro activity described above, the following activities were observed: […]
As for `CC(=O)N[C@H]1[C@H](N2CCCCC2)C=C(C(=O)O)C[C@@H]1N` [Compound 5l], the IC50 was found to be 3 nM.

Usually IC50 stands for the concentration that gives 50% inhibition.
